Data reported in PubChem BioAssay (NCI).
Where “and” joins values, the source holds several entries; their conditions need not be identical. Equal values may be shown once.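 Each compound was tested at five concentrations against cells in 96-well plates for 48 hours. At the GI50, growth is halved. The concentration for full growth arrest is given as TGI.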

Key:
Assay in all cases: NCI tumour cell line growth inhibition, 48 h
786-0 renal = system: 786-0 renal
A498 renal = system: A498 renal
A549 NSCLC = system: A549 NSCLC
ACHN renal = system: ACHN renal
BT-549 breast = system: BT-549 breast
CAKI-1 renal = system: CAKI-1 renal
CCRF-CEM leukemia = system: CCRF-CEM leukemia
COLO 205 colon = system: COLO 205 colon
DU-145 prostate = system: DU-145 prostate
EKVX NSCLC = system: EKVX NSCLC
HCC-2998 colon = system: HCC-2998 colon
HCT-116 colon = system: HCT-116 colon
HCT-15 colon = system: HCT-15 colon
HL-60(TB) leukemia = system: HL-60(TB) leukemia
HOP-62 NSCLC = system: HOP-62 NSCLC
HT29 colon = system: HT29 colon
IGROV1 ovarian = system: IGROV1 ovarian
K-562 leukemia = system: K-562 leukemia
KM12 colon = system: KM12 colon
M14 melanoma = system: M14 melanoma
MALME-3M melanoma = system: MALME-3M melanoma
MCF7 breast = system: MCF7 breast
MDA-MB-231 breast = system: MDA-MB-231 breast
MDA-MB-435 = system: MDA-MB-435
MDA-N = system: MDA-N
MOLT-4 leukemia = system: MOLT-4 leukemia
NCI-H460 lung = system: NCI-H460 lung
NCI/ADR-RES ovarian = system: NCI/ADR-RES ovarian
OVCAR-3 ovarian = system: OVCAR-3 ovarian
OVCAR-5 ovarian = system: OVCAR-5 ovarian
OVCAR-8 ovarian = system: OVCAR-8 ovarian
PC-3 prostate = system: PC-3 prostate
RPMI-8226 leukemia = system: RPMI-8226 leukemia
RXF 393 renal = system: RXF 393 renal
SF-268 CNS = system: SF-268 CNS
SF-295 CNS = system: SF-295 CNS
SF-539 CNS = system: SF-539 CNS
SK-MEL-2 melanoma = system: SK-MEL-2 melanoma
SK-MEL-28 melanoma = system: SK-MEL-28 melanoma
SK-MEL-5 melanoma = system: SK-MEL-5 melanoma
SK-OV-3 ovarian = system: SK-OV-3 ovarian
SN12C renal = system: SN12C renal
SNB-19 CNS = system: SNB-19 CNS
SNB-75 CNS = system: SNB-75 CNS
SR leukemia = system: SR leukemia
SW-620 colon = system: SW-620 colon
T-47D breast = system: T-47D breast
TK-10 renal = system: TK-10 renal
U251 CNS = system: U251 CNS
UACC-257 melanoma = system: UACC-257 melanoma
UACC-62 melanoma = system: UACC-62 melanoma
UO-31 renal = system: UO-31 renal
HOP-92 NSCLC = system: HOP-92 NSCLC
LOX IMVI melanoma = system: LOX IMVI melanoma
NCI-H226 lung = system: NCI-H226 lung
NCI-H23 lung = system: NCI-H23 lung
NCI-H522 lung = system: NCI-H522 lung
OVCAR-4 ovarian = system: OVCAR-4 ovarian

O=C1CCCCC/C1=C\c1cccc(F)c1
TGI (786-0 renal): > 100 µM
TGI (A498 renal): > 100 µM
TGI (A549 NSCLC): > 100 µM
TGI (ACHN renal): > 100 µM
TGI (BT-549 breast): > 100 µM
TGI (CAKI-1 renal): > 100 µM
TGI (CCRF-CEM leukemia): 81.4 µM
TGI (COLO 205 colon): > 100 µM
TGI (DU-145 prostate): > 100 µM
TGI (EKVX NSCLC): > 100 µM
TGI (HCC-2998 colon): > 100 µM
TGI (HCT-116 colon): > 100 µM
TGI (HCT-15 colon): > 100 µM
TGI (HL-60(TB) leukemia): > 100 µM
TGI (HOP-62 NSCLC): > 100 µM
TGI (HT29 colon): > 100 µM
TGI (IGROV1 ovarian): > 100 µM
TGI (K-562 leukemia): > 100 µM
TGI (KM12 colon): > 100 µM
TGI (M14 melanoma): > 100 µM
TGI (MALME-3M melanoma): > 100 µM
TGI (MCF7 breast): > 100 µM
TGI (MDA-MB-231 breast): > 100 µM
TGI (MDA-MB-435): > 100 µM
TGI (MDA-N): > 100 µM
TGI (MOLT-4 leukemia): > 100 µM
TGI (NCI-H460 lung): > 100 µM
TGI (NCI/ADR-RES ovarian): > 100 µM
TGI (OVCAR-3 ovarian): > 100 µM
TGI (OVCAR-5 ovarian): > 100 µM
TGI (OVCAR-8 ovarian): > 100 µM
TGI (PC-3 prostate): > 100 µM
TGI (RPMI-8226 leukemia): 97.5 µM
TGI (RXF 393 renal): > 100 µM
TGI (SF-268 CNS): > 100 µM
TGI (SF-295 CNS): > 100 µM
TGI (SF-539 CNS): > 100 µM
TGI (SK-MEL-2 melanoma): > 100 µM
TGI (SK-MEL-28 melanoma): > 100 µM
TGI (SK-MEL-5 melanoma): > 100 µM
TGI (SK-OV-3 ovarian): > 100 µM
TGI (SN12C renal): > 100 µM
TGI (SNB-19 CNS): > 100 µM
TGI (SNB-75 CNS): > 100 µM
TGI (SR leukemia): 61.2 µM
TGI (SW-620 colon): > 100 µM
TGI (T-47D breast): > 100 µM
TGI (TK-10 renal): > 100 µM
TGI (U251 CNS): > 100 µM
TGI (UACC-257 melanoma): > 100 µM
TGI (UACC-62 melanoma): > 100 µM
TGI (UO-31 renal): > 100 µM

O=C1C(N2CCN(CCOCCO)CC2)=C(Cl)C(=O)c2ncccc21
TGI (786-0 renal): 36 µM
GI50 (A498 renal): > 100 µM
TGI (A498 renal): > 100 µM
GI50 (A549 NSCLC): > 100 µM
TGI (A549 NSCLC): > 100 µM
TGI (ACHN renal): 33.4 µM
TGI (BT-549 breast): 8.33 µM
TGI (CAKI-1 renal): 31.8 µM
GI50 (CCRF-CEM leukemia): 13.5 µM
TGI (CCRF-CEM leukemia): 4.44 µM and 35.9 µM
GI50 (COLO 205 colon): 19.3 µM
TGI (COLO 205 colon): 36.8 µM
TGI (DU-145 prostate): > 100 µM
TGI (EKVX NSCLC): 35.1 µM
GI50 (HCC-2998 colon): > 100 µM
TGI (HCC-2998 colon): > 100 µM
GI50 (HCT-116 colon): 18.5 µM
TGI (HCT-116 colon): 33.5 µM
TGI (HCT-15 colon): 37.4 µM
GI50 (HL-60(TB) leukemia): 2.24 µM
TGI (HL-60(TB) leukemia): 8.29 µM and 5.91 µM
GI50 (HOP-62 NSCLC): > 100 µM
TGI (HOP-62 NSCLC): > 100 µM
GI50 (HOP-92 NSCLC): 16.7 µM
TGI (HOP-92 NSCLC): 6.27 µM and 31.4 µM
TGI (HT29 colon): 46 µM
TGI (IGROV1 ovarian): 31.4 µM
GI50 (K-562 leukemia): 13.3 µM
TGI (K-562 leukemia): 34.4 µM
GI50 (KM12 colon): > 100 µM
TGI (KM12 colon): > 100 µM
TGI (LOX IMVI melanoma): 26.7 µM
TGI (M14 melanoma): 39.2 µM
GI50 (MALME-3M melanoma): 19.3 µM
TGI (MALME-3M melanoma): 33.8 µM
GI50 (MCF7 breast): 18.3 µM
TGI (MCF7 breast): 5.97 µM and 36.7 µM
TGI (MDA-MB-231 breast): 34.2 µM
GI50 (MDA-MB-435): 18.5 µM
GI50 (MDA-N): 19.4 µM
TGI (MDA-N): 3.76 µM and 35 µM
GI50 (MOLT-4 leukemia): 9.63 µM
TGI (MOLT-4 leukemia): 5.15 µM and 31.4 µM
GI50 (NCI-H226 lung): > 100 µM
TGI (NCI-H226 lung): > 100 µM
TGI (NCI-H23 lung): 42.5 µM
TGI (NCI-H460 lung): > 100 µM
GI50 (NCI-H522 lung): 17.7 µM
TGI (NCI-H522 lung): 4.22 µM and 32.6 µM
TGI (NCI/ADR-RES ovarian): > 100 µM
TGI (OVCAR-3 ovarian): 32.7 µM
TGI (OVCAR-4 ovarian): 34.8 µM
TGI (OVCAR-5 ovarian): 57.1 µM
TGI (OVCAR-8 ovarian): 39.4 µM
TGI (PC-3 prostate): 38.9 µM
TGI (RPMI-8226 leukemia): 47.8 µM
TGI (RXF 393 renal): 35.1 µM
TGI (SF-268 CNS): 44.5 µM
GI50 (SF-295 CNS): > 100 µM
TGI (SF-295 CNS): > 100 µM
TGI (SF-539 CNS): 44.6 µM
TGI (SK-MEL-2 melanoma): 43.9 µM
TGI (SK-MEL-28 melanoma): 43.7 µM
TGI (SK-MEL-5 melanoma): 30.6 µM
GI50 (SK-OV-3 ovarian): > 100 µM
TGI (SK-OV-3 ovarian): > 100 µM
TGI (SN12C renal): 35.3 µM
TGI (SNB-75 CNS): > 100 µM
TGI (SW-620 colon): 50.7 µM
TGI (T-47D breast): 6.75 µM
TGI (TK-10 renal): 48.5 µM
TGI (U251 CNS): 35.9 µM
TGI (UACC-257 melanoma): 39.9 µM
TGI (UACC-62 melanoma): 43.8 µM
TGI (UO-31 renal): 33.6 µM
